Results as given in ChEMBL document CHEMBL1955803, “Preclinical in vivo evaluation of efficacy, pharmacokinetics, and pharmacodynamics of a novel MEK1/2 kinase inhibitor RO5068760 in multiple tumor models” (Mol Cancer Ther, 2010).
The source made the active and inactive calls. The calls are words filed in the database; no cut-off is given here.

Assays:
[1] = Cmax in human HT-29 cells expressing B-Raf V600E mutant xenografted nude mouse at 25 mg/kg, po bid; type: ADME, organism-based; parameters: dose 25 mg/kg, route oral; conditions: in vivo
HT-29 [2] = assay: Growth inhibition of human HT-29 cells expressing B-Raf V600E mutant by MTT assay; type: functional, cell-based
[3] = AUC (0 to 12 hrs) in human LOX cells expressing B-Raf V600E mutant xenografted nude mouse at 12.5 mg/kg, po bid; type: ADME, organism-based; parameters: time < 12 hr, dose 12.5 mg/kg, route oral; conditions: in vivo
Mus musculus [4] = assay: Toxicity in human H460 cells expressing K-Ras Q61H mutant xenografted nude mouse assessed as gross signs of adverse effect at 25 to 200 mg/kg, po bid for 3 weeks; type: organism-based; parameters: dose 25-200 mg/kg, route oral; conditions: in vivo, 504 h
[5] = AUC (0 to 12 hrs) in human HT-29 cells expressing B-Raf V600E mutant xenografted nude mouse at 50 mg/kg, po bid; type: ADME, organism-based; parameters: time < 12 hr, dose 50 mg/kg, route oral; conditions: in vivo
NCI-H460 [6] = assay: Antitumor activity against human H460 cells expressing K-Ras Q61H mutant xenografted in nude mouse assessed as tumor growth inhibition at 100 mg/kg, po bid; type: functional; conditions: read-out: GI
[7] = Cmax in human H460 cells expressing K-Ras Q61H mutant xenografted nude mouse at 200 mg/kg, po qd; type: ADME, organism-based; parameters: dose 200 mg/kg, route oral; conditions: in vivo
[8] = molecular target: Dual specificity mitogen-activated protein kinase kinase 1 (Homo sapiens, UniProt Q02750); assay: Inhibition of MEK1 in human HT-29 cells assessed as inhibition of ERK phosphorylation by Western blot analysis; type: cell-based
Sequence of Dual specificity mitogen-activated protein kinase kinase 1 (Q02750 whole entry): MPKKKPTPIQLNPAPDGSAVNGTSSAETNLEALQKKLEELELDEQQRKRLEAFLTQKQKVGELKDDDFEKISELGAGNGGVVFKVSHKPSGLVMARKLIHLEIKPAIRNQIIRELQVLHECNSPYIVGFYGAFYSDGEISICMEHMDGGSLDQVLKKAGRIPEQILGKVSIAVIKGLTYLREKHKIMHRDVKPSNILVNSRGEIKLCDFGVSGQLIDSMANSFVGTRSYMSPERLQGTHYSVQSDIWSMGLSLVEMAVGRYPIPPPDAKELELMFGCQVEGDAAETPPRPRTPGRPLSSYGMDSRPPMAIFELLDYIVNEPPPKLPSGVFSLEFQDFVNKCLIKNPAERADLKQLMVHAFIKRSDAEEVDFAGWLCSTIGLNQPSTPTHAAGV

Mus musculus [9] = assay: Inhibition of MEK-mediated ERK phosphorylation in tumor of human HT-29 cells expressing B-Raf V600E mutant xenografted nude mouse at 50 mg/kg, po after 8 hrs by Western blot analysis relative to control; type: functional; conditions: HT-29, 8 h
[10] = Plasma concentration in human HT-29 cells expressing B-Raf V600E mutant xenografted nude mouse at 100 mg/kg, po after 12 hrs; type: ADME, organism-based; parameters: dose 100 mg/kg, route oral
[11] = Drug level in human HT-29 cells expressing B-Raf V600E mutant xenografted nude mouse tumor at 100 mg/kg, po after 2 hrs; type: ADME, organism-based, Neoplasm; parameters: dose 100 mg/kg, route oral; conditions: read-out: Drug uptake
NCI-H460 [12] = assay: Antitumor activity against human H460 cells expressing K-Ras Q61H mutant xenografted in nude mouse assessed as tumor growth inhibition at 200 mg/kg, po bid; type: functional; conditions: read-out: GI
[13] = AUC (0 to 12 hrs) in human HT-29 cells expressing B-Raf V600E mutant xenografted nude mouse at 25 mg/kg, po bid; type: ADME, organism-based; parameters: time < 12 hr, dose 25 mg/kg, route oral; conditions: in vivo
[14] = molecular target: T1, Dual specificity mitogen-activated protein kinase kinase; MEK1/2 (Homo sapiens) (UniProt P36507+Q02750); conditions: HT-29, 2 to 10 uM
T1 sequence (P36507 whole entry, looked up): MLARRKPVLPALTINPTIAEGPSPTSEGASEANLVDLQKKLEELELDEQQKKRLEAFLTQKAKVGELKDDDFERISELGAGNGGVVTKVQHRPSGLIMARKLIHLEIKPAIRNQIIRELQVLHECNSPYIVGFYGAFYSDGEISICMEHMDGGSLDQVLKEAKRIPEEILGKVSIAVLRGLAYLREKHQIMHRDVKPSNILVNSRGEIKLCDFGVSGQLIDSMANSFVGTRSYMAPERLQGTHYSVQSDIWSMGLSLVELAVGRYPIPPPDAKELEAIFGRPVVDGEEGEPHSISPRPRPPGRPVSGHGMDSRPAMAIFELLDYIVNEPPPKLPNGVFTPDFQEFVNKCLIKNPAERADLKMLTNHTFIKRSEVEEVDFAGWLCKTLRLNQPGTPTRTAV
T1 sequence (Q02750 whole entry, looked up): as the sequence (Q02750 whole entry) above
Description: Inhibition of MEK1/2 in human HT-29 cells assessed as inhibition of ERK1/2 phosphorylation at 2 to 10 uM by Western blot analysis

[15] = AUC (0 to 24 hrs) in human H460 cells expressing K-Ras Q61H mutant xenografted nude mouse at 200 mg/kg, po qd; type: ADME, organism-based; parameters: time < 24 hr, dose 200 mg/kg, route oral; conditions: in vivo
[16] = Plasma concentration in human HT-29 cells expressing B-Raf V600E mutant xenografted nude mouse at 50 mg/kg, po after 12 hrs; type: ADME, organism-based; parameters: dose 50 mg/kg, route oral
Mus musculus [17] = assay: Average drug concentration in human MIAPaCa2 cells expressing K-Ras G12C mutant xenografted nude mouse plasma at 25 mg/kg, po bid; type: ADME, organism-based, MIA PaCa-2; parameters: dose 25 mg/kg, route oral; conditions: in vivo
Mus musculus [18] = assay: Average drug concentration in human HT-29 cells expressing B-Raf V600E mutant xenografted nude mouse plasma at 25 mg/kg, po bid; type: ADME, organism-based; parameters: dose 25 mg/kg, route oral; conditions: in vivo
Mus musculus [19] = assay: Inhibition of MEK-mediated ERK phosphorylation in tumor of human LOX cells expressing B-Raf V600E mutant xenografted nude mouse at 100 mg/kg, po after 4 hrs by Western blot analysis relative to control; type: functional
[20] = Cmax in human LOX cells expressing B-Raf V600E mutant xenografted nude mouse at 25 mg/kg, po bid; type: ADME, organism-based; parameters: dose 25 mg/kg, route oral; conditions: in vivo
HT-29 [21] = assay: Reversible growth inhibition of human HT-29 cells expressing B-Raf V600E mutant measured up to 3 days by MTT assay; type: functional, cell-based
[22] = Cmax in human HT-29 cells expressing B-Raf V600E mutant xenografted nude mouse at 100 mg/kg, po bid; type: ADME, organism-based; parameters: dose 100 mg/kg, route oral; conditions: in vivo
[23] = molecular target: T1, Dual specificity mitogen-activated protein kinase kinase; MEK1/2 (Homo sapiens); conditions: LOX, 2 to 10 uM
Description: Inhibition of MEK1/2 in human LOX cells assessed as down regulation of CDK4/cyclin D1 expression at 2 to 10 uM by Western blot analysis

[24] = AUC (0 to 12 hrs) in human H460 cells expressing K-Ras Q61H mutant xenografted nude mouse at 25 mg/kg, po bid; type: ADME, organism-based; parameters: time < 12 hr, dose 25 mg/kg, route oral; conditions: in vivo
[25] = AUC (0 to 12 hrs) in human LOX cells expressing B-Raf V600E mutant xenografted nude mouse at 6.25 mg/kg, po bid; type: ADME, organism-based; parameters: time < 12 hr, dose 6.25 mg/kg, route oral; conditions: in vivo
Mus musculus [26] = assay: Inhibition of MEK-mediated ERK phosphorylation in tumor of human HT-29 cells expressing B-Raf V600E mutant xenografted nude mouse at 50 mg/kg, po after 4 hrs by Western blot analysis relative to control; type: functional; conditions: HT-29, 4 h
Mus musculus [27] = assay: Toxicity in human HT-29 cells expressing B-Raf V600E mutant xenografted nude mouse assessed as gross signs of adverse effect at 25 to 100 mg/kg, po bid for 3 weeks; type: organism-based; parameters: dose 25-100 mg/kg, route oral; conditions: in vivo, 504 h
MIA PaCa-2 = assay: Antitumor activity against human MIAPaCa2 cells expressing K-Ras G12C mutant xenografted in nude mouse assessed as tumor growth inhibition at 25 mg/kg, po bid; type: functional; conditions: read-out: GI
[28] = Antitumor activity against human LOX cells expressing B-Raf V600E mutant xenografted in nude mouse assessed as tumor growth inhibition at 200 mg/kg, po bid; type: functional; conditions: read-out: GI
NCI-H460 [29] = assay: Antitumor activity against human H460 cells expressing K-Ras Q61H mutant xenografted in nude mouse assessed as tumor growth inhibition at 500 mg/kg, po administered weekly once; type: functional; conditions: read-out: GI
Mus musculus [30] = assay: Average drug concentration in human LOX cells expressing B-Raf V600E mutant xenografted nude mouse plasma at 12.5 mg/kg, po bid; type: ADME, organism-based; parameters: dose 12.5 mg/kg, route oral; conditions: in vivo
Mus musculus [31] = assay: Average drug concentration in human LOX cells expressing B-Raf V600E mutant xenografted nude mouse plasma at 25 mg/kg, po bid; type: ADME, organism-based; parameters: dose 25 mg/kg, route oral; conditions: in vivo
[32] = Antitumor activity against human LOX cells expressing B-Raf V600E mutant xenografted in nude mouse assessed as tumor growth inhibition at 25 mg/kg, po bid; type: functional; conditions: read-out: GI
[33] = AUC (0 to 12 hrs) in human MIAPaCa2 cells expressing K-Ras G12C mutant xenografted nude mouse at 50 mg/kg, po bid; type: ADME, organism-based, MIA PaCa-2; parameters: time < 12 hr, dose 50 mg/kg, route oral; conditions: in vivo
[34] = Antitumor activity against human LOX cells expressing B-Raf V600E mutant xenografted in nude mouse assessed as tumor growth inhibition at 100 mg/kg, po bid; type: functional; conditions: read-out: GI
Mus musculus [35] = assay: Inhibition of MEK-mediated ERK phosphorylation in po dosed human LOX cells expressing B-Raf V600E mutant xenografted nude mouse plasma by Western blot analysis; type: functional, organism-based
Mus musculus [36] = assay: Inhibition of MEK-mediated ERK phosphorylation in tumor of human HT-29 cells expressing B-Raf V600E mutant xenografted nude mouse at 100 mg/kg, po after 12 hrs by Western blot analysis relative to control; type: functional; conditions: HT-29, 12 h

- Cmax [1]: 911 ng/mL
- IC50 (HT-29 [2]): 110 nM
- IC90 (HT-29 [2]): 560 nM
- AUC at 12 h [3]: 4660 ng·h/mL
- AUC at 12 h [5]: 7310 ng·h/mL
- Cmax [7]: 20700 ng/mL
- IC50 [8]: 12 nM
- concentration at 12 h [10]: 195 ng/mL
- concentration at 2 h [11]: 2090 ng/g
- AUC at 12 h [13]: 3780 ng·h/mL
- inhibition [14]: Active
- AUC at 24 h [15]: 122000 ng·h/mL
- concentration at 12 h [16]: 61 ng/mL
- Cave (Mus musculus [17]): 1058 ng/mL
- Cave (Mus musculus [18]): 315 ng/mL
- Cmax [20]: 3790 ng/mL
- Cmax [22]: 4070 ng/mL
- inhibition [23]: Active
- AUC at 12 h [24]: 8800 ng·h/mL
- AUC at 12 h [25]: 3970 ng·h/mL
- Cave (Mus musculus [30]): 388 ng/mL
- Cave (Mus musculus [31]): 833 ng/mL
- AUC at 12 h [33]: 18800 ng·h/mL
- EC50 (Mus musculus [35]): 1360 nM
Structure (SMILES): C[C@@H](c1ccccc1)[C@@H](C(=O)Nc1ccc(I)cc1F)N1C(=O)N[C@H](c2ccc(OC[C@H](O)CO)cc2)C1=O
- growth inhibition (GI) (HT-29 [2]; TDE = time-dependent effect): tde
- Activity (Mus musculus [4]): Non-toxic
- inhibition in vivo at 100 mg/kg (NCI-H460 [6]): 90%
- inhibition in vivo at 50 mg/kg (Mus musculus [9]): 12%
- inhibition in vivo at 200 mg/kg (NCI-H460 [12]): 80%
- inhibition in vivo at 100 mg/kg (Mus musculus [19]): 83%
- Activity (HT-29 [21]): Active
- inhibition in vivo at 50 mg/kg (Mus musculus [26]): 81%
- Activity (Mus musculus [27]): Non-toxic
- inhibition in vivo at 25 mg/kg (MIA PaCa-2): 71%
- inhibition in vivo at 200 mg/kg [28]: > 100%
- inhibition in vivo at 500 mg/kg (NCI-H460 [29]): 48%
- inhibition in vivo at 25 mg/kg [32]: > 100%
- inhibition in vivo at 100 mg/kg [34]: > 100%
- inhibition in vivo at 100 mg/kg (Mus musculus [36]): 0%
